Measured values: ChEMBL document CHEMBL4622980, “Peptide Inhibitors of Bacterial Protein Synthesis with Broad Spectrum and SbmA-Independent Bactericidal Activity against Clinical Pathogens” (J Med Chem, 2020)
Converted amounts (≈) assume the structure as drawn. Non-standard residues stand in square brackets, D forms with d. Residues, ends and D or L forms follow the SMILES beside them. ξ: configuration not given here. ξP = O=C(O)C1CCCN1

System: Escherichia coli
Assay: Antibacterial activity against Escherichia coli BW25113 assessed as prevention visible bacterial growth incubated for 18 hrs
Assay type: functional
Conditions: BW25113, 18 h

| MIC99 [µM] | Compound |
| --- | --- |
| 16 (≈ 33 µg/mL) | CC(C)C[C@H](NC(=O)[C@H](CCCNC(=N)N)NC(=O)[C@@H]1CCCN1C(=O)[C@@H]1CCCN1C(=O)[C@H](CCCNC(=N)N)NC(=O)[C@@H]1CCCN1C(=O)[C@H](CCCNC(=N)N)NC(=O)C1CCCN1C(=O)[C@H](CCCNC(=N)N)NC(=O)[C@@H](N)CCCNC(=N)N)C(=O)N1CCC[C@H]1C(=O)N[C@@H](CCCNC(=N)N)C(=O)N1CCC[C@H]1C(=O)N[C@@H](CCCNC(=N)N)C(=O)N1CCC[C@H]1C(=O)N[C@@H](CCCNC(=N)N)C(=O)O (some centres not stated) (H-RR[ξP]RPRPPRLPRPRPR-OH) |
| 64 (≈ 129 µg/mL) | CC[C@H](C)[C@H](NC(=O)C1CCCN1C(=O)[C@@H](N)CCCNC(=N)N)C(=O)N[C@@H](CCCNC(=N)N)C(=O)N1CCC[C@H]1C(=O)N[C@@H](CCCNC(=N)N)C(=O)N1CCC[C@H]1C(=O)N1CCC[C@H]1C(=O)N[C@@H](CCCNC(=N)N)C(=O)N[C@@H](CC(C)C)C(=O)N1CCC[C@H]1C(=O)N[C@@H](CCCNC(=N)N)C(=O)N1CCC[C@H]1C(=O)N[C@@H](CCCNC(=N)N)C(=O)N1CCC[C@H]1C(=O)N[C@@H](CCCNC(=N)N)C(=O)O (some centres not stated) (H-R[ξP]IRPRPPRLPRPRPR-OH) |
| 4 | H-ARIRPRPPRLPRPRPR-OH |
| 64 | H-ERIRPRPPRLPRPRPR-OH |
| 4 | H-FRIRPRPPRLPRPRPR-OH |
| 8 | H-GRIRPRPPRLPRPRPR-OH |
| 64 | H-IRPLPPRRPRRPRRRP-OH |
| 8 | H-PRIRPRPPRLPRPRPR-OH |
| 16 | H-RAIRPRPPRLPRPRPR-OH |
| 64 | H-REIRPRPPRLPRPRPR-OH |
| 16 | H-RFIRPRPPRLPRPRPR-OH |
| 16 | H-RGIRPRPPRLPRPRPR-OH |
| 16 | H-RRARPRPPRLPRPRPR-OH |
| 64 | H-RRERPRPPRLPRPRPR-OH |
| 16 | H-RRFRPRPPRLPRPRPR-OH |
| 16 | H-RRGRPRPPRLPRPRPR-OH |
| 16 | H-RRIAPRPPRLPRPRPR-OH |
| > 64 | H-RRIEPRPPRLPRPRPR-OH |
| 16 | H-RRIFPRPPRLPRPRPR-OH |

| MIC99 [µM] | Compound |
| --- | --- |
| 16 | H-RRIGPRPPRLPRPRPR-OH |
| 16 | H-RRIPPRPPRLPRPRPR-OH |
| 8 | H-RRIRARPPRLPRPRPR-OH |
| 32 | H-RRIRERPPRLPRPRPR-OH |
| 8 | H-RRIRFRPPRLPRPRPR-OH |
| 8 | H-RRIRGRPPRLPRPRPR-OH |
| 16 | H-RRIRPAPPRLPRPRPR-OH |
| > 64 | H-RRIRPEPPRLPRPRPR-OH |
| 16 | H-RRIRPFPPRLPRPRPR-OH |
| 32 | H-RRIRPGPPRLPRPRPR-OH |
| 32 | H-RRIRPPPPRLPRPRPR-OH |
| 16 | H-RRIRPRAPRLPRPRPR-OH |
| 32 | H-RRIRPREPRLPRPRPR-OH |
| 8 | H-RRIRPRFPRLPRPRPR-OH |
| 16 | H-RRIRPRGPRLPRPRPR-OH |
| 16 | H-RRIRPRPARLPRPRPR-OH |
| 64 | H-RRIRPRPERLPRPRPR-OH |
| 16 | H-RRIRPRPFRLPRPRPR-OH |
| 16 | H-RRIRPRPGRLPRPRPR-OH |

| MIC99 [µM] | Compound |
| --- | --- |
| 64 | H-RRIRPRPPALPRPRPR-OH |
| > 64 | H-RRIRPRPPELPRPRPR-OH |
| 16 | H-RRIRPRPPFLPRPRPR-OH |
| 64 | H-RRIRPRPPGLPRPRPR-OH |
| 16 | H-RRIRPRPPPLPRPRPR-OH |
| 64 | H-RRIRPRPPRAPRPRPR-OH |
| > 64 | H-RRIRPRPPREPRPRPR-OH |
| 32 | H-RRIRPRPPRFPRPRPR-OH |
| 64 | H-RRIRPRPPRGPRPRPR-OH |
| 32 | H-RRIRPRPPRLARPRPR-OH |
| 64 | H-RRIRPRPPRLERPRPR-OH |
| 32 | H-RRIRPRPPRLFRPRPR-OH |
| 32 | H-RRIRPRPPRLGRPRPR-OH |
| 32 | H-RRIRPRPPRLPAPRPR-OH |
| > 64 | H-RRIRPRPPRLPEPRPR-OH |
| 16 | H-RRIRPRPPRLPFPRPR-OH |
| 32 | H-RRIRPRPPRLPGPRPR-OH |
| 32 | H-RRIRPRPPRLPPPRPR-OH |
| 16 | H-RRIRPRPPRLPRARPR-OH |
